Values after ≈ are worked out from the molar mass of the structure shown. Where two headings read alike, the source gives them in different places. *1 amine or outer side, *2 acyl side, *3 side chain or, on linkers, in order; H or OH if unused. Where a SMILES comes first, the peptide text is derived from it. Bridges are numbered along the chain shown (N, C = ends). [ ]: non-standard residue; d: D form. The star is where a group is joined. Phe(3,5-F2) = N[C@@H](Cc1cc(F)cc(F)c1)C(=O)O; Pro(4R-Me) = C[C@H]1CN[C@H](C(=O)O)C1; Hyp = O=C(O)[C@@H]1C[C@@H](O)CN1; Heptenoyl(2E) = CCCC/C=C/C(=O)*; aThr = C[C@H](O)[C@H](N)C(=O)O; Pip = O=C(O)[C@@H]1CCCCN1; X4 = c1cc2c(cc1N*)CCC2; X8 = c1cc2c(cc1N*)CCO2; X6 = Cc1cc(C)cc(N*)c1; CO = O=C([*:1])[*:2]; X7 = CC/C=C/C(=O)*
Key:
[1] = molecular target: T1, Sa-ClpP (Staphylococcus aureus, UniProt Q2G036); assay: ADEP displacement fluorescence polarization assay (FP probe ADEP 2591); assay type: binding
T1 construct: made in house; host or cells: E. coli BL21(DE3)
T1 sequence (Q2G036 1-195): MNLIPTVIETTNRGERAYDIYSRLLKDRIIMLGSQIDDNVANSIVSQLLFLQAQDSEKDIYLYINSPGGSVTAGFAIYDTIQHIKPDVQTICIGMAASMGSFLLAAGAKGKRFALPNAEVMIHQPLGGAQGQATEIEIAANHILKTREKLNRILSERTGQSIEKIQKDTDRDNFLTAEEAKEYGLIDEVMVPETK
Experimental: A fluorescence polarization (FP) assay was used to determine the activity of the disclosed compounds in displacing an ADEP analogue from ClpP. Briefly, the assay was performed in black 384 well, flat bottom, low volume plates (Greiner Bio-One, Monroe, N.C., catalog #784076). 20 μL of a pre-equilibrated (1 hr, room temperature) master mix (15 μM Sa-ClpP, 2% DMSO (v/v) and 50 nM FP probe in Tris*HCl, pH 8.0)) was pipetted into each well using a Well-Mate (Thermo Scientific, Waltham, Mass.). Sa-ClpP was prepared as described above for the ClpP activation assay. The FP probe was ADEP 2591 (structure shown above). The ADEP 2591 comprises a TAMRA fluorophore linked to a core based on modified ADEP 2378 via a short alkyl linker. Using pin transfer, approximately 0.4 μL (2% v/v DMSO) of each compound or control was added per well. After addition of compounds and controls, plates were allowed to incubate for an additional 120 minutes at room temperature. All assays were performed in triplicate. Polarization was monitored using an EnVision Multilabel reader (Perkin-Elmer, Waltham, Mass.) by exciting the FP probe at 530±25 nm, and monitoring fluorescence intensity of both parallel and perpendicular polarized light at 579±25 nm. Readout was in millipolarization units (mP).
Data collected was normalized to values obtained from positive (200 μM ADEP 2378) or negative (DMSO) controls. Curves were fit with non-linear regression using the equation “log [inhibitor] vs. Response-variable slope (four parameters)-symmetrical” in the program Prism 6 (GraphPad Software, La Jolla, Calif. USA, www.graphpad.com). The structures for ADEP 2378 and ADEP 2591 are shown above. ADEP 2378 is (E)-N—((S)-1-(((2R,6S,8aS,14aS,20S,23aS)-2,6-dimethyl-5,8,14,19,23-pentaoxooctadecahydro-1H,5H,14H,19H-pyrido[2,1-i]dipyrrolo[2,1-c:2′,1′-1][1]oxa[4,7,10,13]tetraazacyclohexadecin-20-yl)amino)-1-oxo-3-phenylpropan-2-yl)pent-2-enamide. ADEP 2591 is 5-(3-(3-((6S,9S,11aS,17S,20aS)-6,10-dimethyl-5,8,11,16,20-pentaoxo-17-((S)-2-((E)-pent-2-enamido)-3-phenylpropanamido)hexadecahydro-1H,5H,16H-dipyrrolo[2,1-c:2′,1′-1][1]oxa[4,7,10,13]tetraazacyclohexadecin-9-yl)propyl)thioureido)-2-(6-(dimethylamino)-3-(dimethyliminio)-3H-xanthen-9-yl)benzoate.

[2] = tested on: Staphylococcus aureus, ATCC 29213; assay: Minimal inhibitory concentration assay (microbroth dilution); assay type: cell-based; settings: ATCC29213, read-out: Minimal Inhibitory Concentrations S. aureus ATCC 29213
Method in brief: (§1)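 Antibacterial activity was measured by CLSI-standard microdilution in broth, using overnight aerobic incubation at 37 °C. Growth inhibition was scored visually, and MIC taken as the lowest concentration preventing growth.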

[3] = tested on: Staphylococcus aureus, NRS70; assay: as above; assay type: cell-based
Method in brief: as §1

[4] = Staphylococcus aureus, NRS70, read-out: Minimal Inhibitory Concentrations S. aureus NRS70

Structure (SMILES) | IC50 [1] | MIC [2] | MIC ([3]; Staphylococcus aureus, NRS70; read-out: Minimal Inhibitory Concentrations S. aureus NRS70) | MIC [3, 4]
Cc1cc(C)cc(NC(=O)N[C@@H](Cc2cc(F)cc(F)c2)C(=O)N[C@@H]2C(=O)N3CCC[C@H]3C(=O)N3CCCC[C@H]3C(=O)N[C@@H](C)C(=O)N3C[C@H](C)C[C@H]3C(=O)O[C@H]2C)c1 [Compound 304, (S)-3-(3,5-difluorophenyl)-2-(3-(3,5-dimethylphenyl)ureido)-N-((2R,6S,8aS,14aS,20S,21S,23aS)-2,6,21-trimethyl-5,8,14,19,23-pentaoxooctadecahydro-1H,5H,14H,19H-pyrido[2,1-i]dipyrrolo[2,1-c:2′,1′-l][1]oxa[4,7,10,13]tetraazacyclo-hexadecin-20-yl)propanamide] ({X6-CO}-[Phe(3,5-F2)][aThr]P[Pip]A[Pro(4R-Me)]; ester 2-C) | 6.52 ± 0.3 µM | 0.079 µM (≈ 0.0649 µg/mL) | 0.059 µM (≈ 0.0485 µg/mL) | –
CCCC/C=C/C(=O)N[C@@H](Cc1cc(F)cc(F)c1)C(=O)N[C@@H]1C(=O)N2C[C@H](O)C[C@H]2C(=O)N2CCCC[C@H]2C(=O)N[C@@H](C)C(=O)N2C[C@H](C)C[C@H]2C(=O)O[C@H]1C [Compound 301, (E)-N—((S)-3-(3,5-difluorophenyl)-1-(((2R,6S,8aS,14aS,16R,20S,21S,23aS)-16-hydroxy-2,6,21-trimethyl-5,8,14,19,23-pentaoxooctadecahydro-1H,5H,14H,19H-pyrido[2,1-i]dipyrrolo[2,1-c:2′,1′-l][1]oxa[4,7,10,13]tetraazacyclohexadecin-20-yl)amino)-1-oxopropan-2-yl)hept-2-enamide] ({Heptenoyl(2E)}-[Phe(3,5-F2)][aThr][Hyp][Pip]A[Pro(4R-Me)]; ester 2-C) | 7.07 ± 0.3 µM | 0.079 µM (≈ 0.0633 µg/mL) | – | 0.079 µM (≈ 0.0633 µg/mL)
C[C@@H]1C[C@H]2C(=O)O[C@@H](C)[C@H](NC(=O)[C@H](Cc3cc(F)cc(F)c3)NC(=O)Nc3ccc4c(c3)CCC4)C(=O)N3CCC[C@H]3C(=O)N3CCCC[C@H]3C(=O)N[C@@H](C)C(=O)N2C1 [Compound 302, (S)-3-(3,5-difluorophenyl)-2-(3-(2,3-dihydro-1H-INDEN-5-yl)ureido)-N-((2R,6S,8aS,14aS,20S,21S,23aS)-2,6,21-trimethyl-5,8,14,19,23-pentaoxooctadecahydro-1H,5H,14H,19H-pyrido[2,1-i]dipyrrolo[2,1-c:2′,1′-l][1]oxa[4,7,10,13]tetraazacyclohexadecin-20-yl)propanamide] ({X4-CO}-[Phe(3,5-F2)][aThr]P[Pip]A[Pro(4R-Me)]; ester 2-C) | 9.64 ± 0.6 µM | 0.059 µM (≈ 0.0492 µg/mL) | – | 0.039 µM (≈ 0.0325 µg/mL)
CC/C=C/C(=O)N[C@@H](Cc1cc(F)cc(F)c1)C(=O)N[C@@H]1C(=O)N2C[C@H](O)C[C@H]2C(=O)N2CCCC[C@H]2C(=O)N[C@@H](C)C(=O)N2C[C@H](C)C[C@H]2C(=O)O[C@H]1C [Compound 300] (X7-[Phe(3,5-F2)][aThr][Hyp][Pip]A[Pro(4R-Me)]; ester 2-C) | 5.94 ± 0.3 µM | 1.9 µM (≈ 1.47 µg/mL) | – | 2.5 µM (≈ 1.93 µg/mL)
C[C@@H]1C[C@H]2C(=O)O[C@@H](C)[C@H](NC(=O)[C@H](Cc3cc(F)cc(F)c3)NC(=O)Nc3ccc4c(c3)CCO4)C(=O)N3CCC[C@H]3C(=O)N3CCCC[C@H]3C(=O)N[C@@H](C)C(=O)N2C1 [Compound 305, (S)-3-(3,5-difluorophenyl)-2-(3-(2,3-dihydrobenzofuran-5-yl)ureido)-N-((2R,6S,8aS,14aS,20S,21S,23aS)-2,6,21-trimethyl-5,8,14,19,23-pentaoxooctadecahydro-1H,5H,14H,19H-pyrido[2,1-i]dipyrrolo[2,1-c:2′,1′-l][1]oxa[4,7,10,13]tetraazacyclo-hexadecin-20-yl)propanamide] ({X8-CO}-[Phe(3,5-F2)][aThr]P[Pip]A[Pro(4R-Me)]; ester 2-C) | 7.65 ± 0.5 µM | 0.24 µM (≈ 0.201 µg/mL) | – | 0.24 µM (≈ 0.201 µg/mL)
